{"source": "ChEMBL document CHEMBL1147998", "about": "“Synthesis of pH-sensitive amphotericin B-poly(ethylene glycol) conjugates and study of their controlled release in vitro” (Bioorg Med Chem, 2007)", "assay": "Toxicity in iv dosed NMRI mouse after 14 days", "assay_type": "organism-based", "details": "in vivo", "data": [{"smiles": "C[C@@H]1[C@H](O)[C@@H](C)/C=C/C=C/C=C/C=C/C=C/C=C/C=C/[C@H](O[C@@H]2O[C@H](C)[C@@H](O)[C@H](N)[C@@H]2O)C[C@@H]2O[C@](O)(C[C@@H](O)C[C@@H](O)[C@H](O)CC[C@@H](O)C[C@@H](O)CC(=O)O[C@H]1C)C[C@H](O)[C@H]2C(=O)O", "note": "[AMPHOTERICIN B]", "values": [{"measurement": "LD50 at 336 h", "result": 3.7, "unit": "mg/kg"}]}]}
